# Biological target: T1, Tyrosinase (Agaricus bisporus, UniProt O42713)
# T1 sequence (O42713 whole entry): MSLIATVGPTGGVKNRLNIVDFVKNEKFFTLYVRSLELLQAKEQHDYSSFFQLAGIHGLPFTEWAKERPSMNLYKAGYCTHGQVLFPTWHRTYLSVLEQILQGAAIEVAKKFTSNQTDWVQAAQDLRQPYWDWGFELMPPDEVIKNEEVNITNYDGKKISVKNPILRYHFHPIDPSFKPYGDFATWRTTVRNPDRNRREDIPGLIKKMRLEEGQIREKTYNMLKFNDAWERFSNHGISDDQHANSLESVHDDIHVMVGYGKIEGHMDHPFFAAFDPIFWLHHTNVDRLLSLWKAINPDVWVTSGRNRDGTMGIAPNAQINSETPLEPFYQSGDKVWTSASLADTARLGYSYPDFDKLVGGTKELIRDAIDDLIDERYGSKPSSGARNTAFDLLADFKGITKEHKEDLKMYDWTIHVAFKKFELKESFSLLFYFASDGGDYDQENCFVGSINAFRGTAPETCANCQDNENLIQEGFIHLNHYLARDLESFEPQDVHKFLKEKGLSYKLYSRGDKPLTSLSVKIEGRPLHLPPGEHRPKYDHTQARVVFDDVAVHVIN
# Description: Inhibition of mashroom tyrosinase
row,Ki [µM],SMILES
1,3.64,Sc1nnc(-c2cccc(OCc3ccccc3)c2)o1
2,0.53,CC(C)(C)[Si](C)(C)Oc1ccc(-c2nnc(S)s2)cc1
3,0.19,Oc1ccc(-c2nnc(S)s2)cc1
4,4.94,S=c1[nH]nc(C2CCCCC2)o1
5,69.4,S=c1[nH]nc(-c2n[nH]c(=S)o2)o1
6,33.6,S=c1[nH]nc(-c2cccc3ccccc23)o1
7,6.47,S=c1[nH]nc(-c2ccccc2)o1
8,2.4,Nn1c(-c2ccc(O)cc2)n[nH]c1=S
9,5.2,S=c1[nH]nc(C(c2ccccc2)c2ccccc2)s1
10,1.01,Nn1c(-c2ccncc2)n[nH]c1=S
11,6.76,Sc1nnc(C(c2ccccc2)c2ccccc2)o1
12,49,NNC(=O)c1ccc(OCc2ccccc2)cc1
13,18.5,Oc1cccc(-c2nnc(S)o2)c1
14,2.9,S=c1[nH]nc(-c2n[nH]c(=S)s2)s1
15,4.42,Sc1nnc(Cc2nnc(S)o2)o1
16,0.49,Sc1nnc(Cc2nnc(S)s2)s1
17,1.9,Sc1nnc(CCCc2nnc(S)o2)o1
18,1.31,Sc1nnc(-c2ccccc2)s1
19,2.47,S=c1[nH]nc(-c2ccncc2)s1
20,3.67,Sc1nnc(Cc2ccccc2)o1
21,99.6,NNC(=O)c1ccc2ccccc2c1
22,1.77,Oc1ccc(-c2nnc(S)o2)cc1
23,1.35,S=c1[nH]nc(-c2ccc(OCc3ccccc3)cc2)o1
24,14.2,Sc1nnc(-c2ccncc2)o1

row,SMILES,Ki [µM]
1,NNC(=O)c1ccc(O)cc1,177
